Experiments:
[1] = molecular target: UPRT of the protozoan Toxoplasma gondii (Toxoplasma gondii, UniProt Q26998); conditions: purified enzyme; 100 different compounds tested in previous studies; cited from earlier work
[2] = system: HeLa cells; test: Incorporation of thiouracil into RNA of HeLa cells with or without the Toxoplasma UPRT gene (northern blot); type: cell-based, human; conditions: 6 hours
From the text: Methods and Results: The coding region of the Toxoplasma UPRT gene was incorporated into the retroviral vector known as LNCX (Miller & Rosman (1989) BioTechniques 7:980-990), placing the UPRT gene under control of the cytomegalovirus immediate-early promoter. This construct was introduced into HeLa cells and cell lines that had stably incorporated the vector were selected using neomycin. Cells that survived this selection and non-transfected HeLa cells were both grown in the presence of 2,4-dithiouracil for 6 hours. RNA was isolated from these cells and labeled with HPDP-biotin as described above. Incorporation of thiouracil was detected by northern blot as described above.

[3] = system: Toxoplasma RNA; test: Incorporation of thiouracil into Toxoplasma RNA (HPDP-biotin labeling, northern blot probed with streptavidin-HRP); type: cell-based, Toxoplasma gondii; conditions: 6 hours
Procedure: (§1) To test for the incorporation of thiouracil into RNA, wild type (WT) parasites and mutants that lack the UPRT enzyme (UPRT(−)) were used to infect human foreskin fibroblasts in culture after which, the normal medium was replaced with medium containing 2 mM 2,4-dithiouracil. Following growth in this medium for 6 hours, the infected cells were harvested and RNA prepared by standard methods using Trizol reagent from Gibco-BRL.
(§2) The resulting RNA was incubated with HPDP-biotin (EZ-Link Biotin-HPDP (N-(6-(Biotinamido)hexyl)-3′-(2′-pyridyidithio)-propionamide) from Pierce Biotechnology) which specifically reacts with free thiols which are normally not present in RNA. For both RNA samples (WT and UPRT(−)) 25 μg of RNA was incubated with 50 μl of a 1 mg/ml Biotin-HPDP solution and Tris HCl/EDTA buffer (pH 7.4) for 1.5 hours. Biotinylated RNA was precipitated from any excess biotin by isopropanol precipitation and centrifugation. Approximately 2.5 μg of this material was resolved by agarose gel electrophoresis and transferred to a nitrocellulose filter, all by standard procedures. The resulting filter was then probed with streptavidin conjugated to horseradish peroxidase (Streptavidin-HRP) and the bound material detected with chemiluminescence (using the ECL kit from Amersham). […] The upper-most major band is from the large subunit of the human ribosome.

[4] = system: human RNA; test: Incorporation of thiouracil into RNA of human foreskin fibroblast host cells (HPDP-biotin, streptavidin-HRP northern blot); type: cell-based; conditions: Toxoplasma-infected human foreskin fibroblasts, 2 mM, 6 hours
Procedure: as §1, §2

[5] = system: T gondii; test: Growth of T gondii within human foreskin fibroblast cells in media containing 2,4-dithiouracil; type: cell-based, Toxoplasma gondii; conditions: 5 μM to 2 mM 2,4-dithiouracil, even at highest concentration (2 mM); replication monitored over time
Procedure: (§3) Methods and Results: Initial experiments assayed the growth of T gondii within human foreskin fibroblast cells in media containing a range of concentrations of 2,4-dithiouracil (5 μM to 2 mM). Equivalent numbers of parasites were used to infect host cells and the replication of the parasites in the different concentrations of 2,4-dithiouracil was monitored over time.

[6] = system: human foreskin fibroblast cells; test: Growth of human foreskin fibroblast host cells in media containing 2,4-dithiouracil; type: cell-based; conditions: 5 μM to 2 mM 2,4-dithiouracil, even at highest concentration (2 mM)
Procedure: as §3

Chain of UPRT of the protozoan Toxoplasma gondii (Q26998 whole entry): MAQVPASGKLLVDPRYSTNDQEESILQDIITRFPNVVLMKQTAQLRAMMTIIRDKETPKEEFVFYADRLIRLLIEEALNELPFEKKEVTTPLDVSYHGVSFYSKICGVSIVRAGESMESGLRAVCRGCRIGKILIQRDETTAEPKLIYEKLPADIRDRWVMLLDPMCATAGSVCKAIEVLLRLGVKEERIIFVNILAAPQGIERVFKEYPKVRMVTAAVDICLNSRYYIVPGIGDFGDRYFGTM

| Structure (SMILES) | substrate of purified UPRT (conversion into nucleoside monophosphate) [1] | incorporation of thiouracil into RNA ([2]; HeLa cells that had received the Toxoplasma UPRT gene) | incorporation of thiouracil into RNA ([2]; normal (non-transfected) HeLa cells) | incorporation of thiouracil into Toxoplasma RNA, UPRT dependence ([3]; WT versus mutants that lack the UPRT enzyme (UPRT(−)), 2 mM) | incorporation of thiouracil into Toxoplasma ribosomal RNA ([3]; wild type parasites in human foreskin fibroblasts, 2 mM 2,4-dithiouracil) | incorporation into human RNA [4] | growth defects of the parasites [5] | growth defects of the human cells [6] |
| --- | --- | --- | --- | --- | --- | --- | --- | --- |
| Sc1ccnc(S)n1 [2,4-dithiouracil] | converted into UMP | good incorporation at a level similar to that seen with the parasites | lack the ability to incorporate the thiouracil | only in parasites with the UPRT enzyme | two of the three major bands detectable by ethidium staining of the RNA have thiouracil incorporated into them | not incorporated | No growth defects | No growth defects |
| O=c1[nH]cc(F)c(=O)[nH]1 [5-fluorouracil] | known toxic substrates |  |  |  |  |  |  |  |
| O=c1c[n+]([O-])cc[nH]1 [emimycin] | known toxic substrates |  |  |  |  |  |  |  |

Reference: US20040259135A1, “Biosynthetic labeling and separation of RNA” (priority 2003, published 2004)
